According to patent publication US4279904A, “3-Amino-1-benzoxepine derivatives and their salts and pharmaceutical compositions thereof” (Kali-Chemie Pharma GmbH, priority 1979, dated 1981):

Tests used:
gastric peristalsis = assay: Testing of the Gastric Peristalsis (gastric pressure waves, narcotized rats); type: in vivo, rat; details: before vs after administration; for inhibition in vivo at 20 mg/kg: Rattus norvegicus, ip, read-out: Frequency Decrease in %; for Factor of the Increase in Amplitude: i.p., 20 mg/kg
Source text: To determine the functioning of the gastric peristalsis, rats weighing about 200 g are narcotized by means of ketamine hydrochloride and xylazine. A catheter is introduced into the Vena jugularis of the narcotized rats and a tracheal catheter into the trachea. A stomach probe is inserted into their stomach and tied thereto. The probe is connected via a three-way cock with a Statham pressure imparting device (P 23 DB). The stomach is sealed off by a ligature at the pylorus and at the cardia. The stomach is filled with 3 ml of an 0.9% aqueous sodium chloride solution. The pressure waves produced by the stomach are continuously registered by a suitable recording device such as by a Watanabe Multicorder (MC 641). In order to determine the effect of the compounds to be tested, they are dissolved in physiological sodium chloride solution or are suspended in Tylose MH 50 solution. Said solutions or suspensions are administered intraperitoneally to the rats in a dose of 20 mg/kg. The amplitudes and frequencies of the pressure wave-like movements of the stomach as they occur before and after administration of the compound to be tested, are compared.
This effect in combination with a pronounced decrease in the frequencies of varying magnitude results in an improved food passage through the stomach.

[1] = Determination of the Acute Toxicity (acute seven-day toxicity); details: mouse, in vivo, ip, fasting white NMRI mouse, single i.p. dose
Protocol: The acute seven-day toxicity is determined by intraperitoneal administration of a single dose of the respective compound to a fasting white NMRI mouse. The LD50 -values are calculated via electronic data processing by a probit analysis as described in the book "Grundbegriffe der Biometrie" (Basic Biometrical Definitions) by L. Cavalli-Sforza, page 153 et seq., published by Gustav Fischer Verlag, Stuttgart, 1964.

Row | SMILES | inhibition in vivo at 20 mg/kg (gastric peristalsis) [%] | Factor of the Increase in Amplitude (gastric peristalsis) | LD50 at 168 h [1] [mg/kg]
1 | CNC1COc2ccccc2C(=O)C1 (racemic) [Compound 1, rac.-3-methylamino-3,4-dihydro-1-benzoxepin-5(2H)-one] | 8 | 1.6 | 137
2 | CC(C)NC1COc2ccccc2C(=O)C1 (racemic) [Compound 2, rac.-3-isopropylamino-3,4-dihydro-1-benzoxepin-5(2H)-one] | 16 | 2.6 | 183
3 | O=C1CC(NCc2ccccc2)COc2ccccc21 (racemic) [Compound 3, rac.-3-benzylamino-3,4-dihydro-1-benzoxepin-5(2H)-one] | 7 | 3.6 | 253
4 | CN(C)CCCNC1COc2ccccc2C(=O)C1 (racemic) [Compound 4, rac.-3-(γ-dimethylamino-propylamino)-3,4-dihydro-1-benzoxepin-5(2H)-one] | 25 | 3.7 | 272
5 | CN(C)C1COc2ccccc2C(=O)C1 (racemic) [Compound 5, rac.-3-dimethylamino-3,4-dihydro-1-benzoxepin-5(2H)-one] | 12 | 1.3 | 285
6 | CN(C)CCCNC1COc2ccc(Cl)cc2C(=O)C1 (racemic) [Compound 6, rac.-3-(γ-dimethylamino-propylamino)-7-chloro-3,4-dihydro-1-benzoxepin-5(2H)-one] | 29 | 3.4 | 296
7 | CCCCNC1COc2ccccc2C(=O)C1 (racemic) [Compound 7, rac.-3-(n-butylamino)-3,4-dihydro-1-benzoxepin-5(2H)-one] | 28 | 6.6 | –
8 | CN[C@@H]1COc2ccccc2[C@H](O)C1 (relative stereo) [A] | – | – | 342
9 | CC(C)N[C@@H]1COc2ccccc2[C@H](O)C1 (relative stereo) [C] | 13 | – | –
10 | O[C@@H]1C[C@H](NCc2ccccc2)COc2ccccc21 (relative stereo) [D] | 21 | – | 92
11 | CN(C)CCCN[C@@H]1COc2ccccc2[C@H](O)C1 (relative stereo) [E] | 32 | – | 664
12 | CCN(CC)[C@@H]1COc2ccccc2[C@H](O)C1 (relative stereo) [F] | – | – | 183
13 | O[C@@H]1C[C@H](N2CCCC2)COc2ccccc21 (relative stereo) [K] | 10 | – | –
14 | CN(C)[C@@H]1COc2ccccc2[C@H](O)C1 (relative stereo) [O] | 7 | – | –
